Tests used:
[1] = tested on: avascular tissue; assay: Regeneration of avascular tissue upon direct administration; conditions: for regeneration on administration: non-HMG-CoA reductase inhibitor metabolites
[2] = tested on: BMP-2 mRNA expression in rat NP cells; assay: BMP-2 mRNA expression in rat NP cells cultured in alginate beads (RT-qPCR); format: cell-based; conditions: for BMP-2 mRNA expression with a GGTase inhibitor, level compared with SV: single GGTase inhibitor
From the text: Data are normalized with GAPDH and are expressed as ratio to vehicle (DMSO).
Findings from the investigation on SV stimulating endogenous BMP-2 expression in the treated NP cells, which in turn increases chondrogenic phenotype expression (aggrecan and type II collagen mRNA expression as well as sGAG content), were consistent with the above observations, validating that the small molecule is as efficacious in promoting chondrogenesis as to osteogenesis. […] SV has been prescribed widely for the treatment of hypercholesterolaemia and hypertriglyceridaemia. In humans, it undergoes rapid metabolism to form four major oxidative, NADPH-dependent metabolites, 3′-hydroxy SV (hSV), 6′-exomethylene SV (eSV), 3′,5′-dihydrodiol SV (dSV), and SVA (FIG. 5). […] This raised the question as to whether SVA is dominant in the entire scheme of BMP-2 upregulation. To test whether the levels of induced-BMP-2 by both SV and SVA, respectively, would be any different, the present investigators used the in vitro model system developed in the prior study to conduct the test. Rat NP cells harvested from tail discs were cultured initially in monolayer and then in alginate beads (Zhang H. et al. Spine, 2008; 33(16), the entire disclosure of which is incorporated herein by reference). Cells were treated with DMSO (vehicle), SV or SVA at 1 or 3 μM. Cells were then collected at pre-determined time points and with RNA extracted. Gene expression was analyzed by RT-qPCR. […] The BMP-2 level induced in the SVA group was 5-6 times higher than that in the SV one (FIG. 1A).
The classic mechanism understood for cholesterol lowering by statins is that statins act by competitively inhibiting HMG-CoA reductase, the first committed enzyme of the mevalonate (MVA) pathway. This competition reduces the rate by which HMG-CoA reductase is able to produce MVA, the next molecule in the cascade for the synthesis of prenylation enzyme substrates FPP and GGPP that eventually help produce cholesterol. As indicated previous studies by the inventors (Zhang H. N., Lin C. Y. Spine. 2008; 33(16), fully incorporated herein by reference), when SV was present, BMP-2 mRNA expression of NP cells always responded in a time and dose-dependent manner.

[3] = tested on: mevalonate conversion; assay: Inhibition of mevalonate conversion; format: biochemical
[4] = tested on: BMP-2; conditions: non-HMG-CoA reductase inhibitor metabolites

Molecule	effect on BMP-2 upregulation [4]	regeneration on administration [1]	BMP-2 mRNA expression with a GGTase inhibitor, level compared with SV [2]	also measured
CCC(C)(C)C(=O)O[C@H]1C[C@@H](C)C=C2C=C[C@H](C)[C@H](CC[C@@H](O)C[C@@H](O)CC(=O)O)[C@H]21 [SVA, simvastatin beta-hydroxy acid]	–	–	–	anabolic effect relative to SV alone ([1]; regeneration of avascular tissue upon direct administration): 5-6 times; mRNA expression of BMP-2 in cells treated with SVA compared to cells treated with SV ([2]; 1 μM, Day 1 to 3, rat NP cells): the same or doubled; BMP-2 level induced in the SVA group relative to the SV group ([2]; 1 μM, Day 7, rat NP cells): 5-6 times; difference in BMP-2 level between SVA and SV ([2]; 3 μM, rat NP cells): further augmented; inhibition of mevalonate conversion compared with SV [3]: more efficiently than SV
CCC(C)(C)C(=O)OC1CC(C)C(O)C2=CC(O)C(C)C(CCC3CC(O)CC(=O)O3)C21 (centres unmarked) [dSV, 3′,5′-dihydrodiol simvastatin]	also affect BMP-2 upregulation	promoted a degree of regeneration	–	–
COC(=O)[C@H](CC(C)C)NC(=O)c1ccc(NC[C@@H](N)CS)cc1-c1ccccc1 [GGTI-286, reference compound]	–	–	able to increase BMP-2 mRNA expression, but the level was much lower than that found with SV	–
C=C(C)[C@@H]1CC=C(CO)CC1 [POH, reference compound]	–	–	able to increase BMP-2 mRNA expression, but the level was much lower than that found with SV	–
3′-hydroxy simvastatin [hSV]	also affect BMP-2 upregulation	promoted a degree of regeneration	–	–
